Measured values taken from patent US20070043102A1, “Oral suspension of tegaserod” (priority 2003, published 2007).

Experiment: Stability study of the oral suspensions (HPLC assay and degradation products)
Type: physicochemical
Experimental: The stability study is performed for maximum 3 days at the storage conditions of room temperature (about 20-25° C.) and/or 5° C. ( fridge). The start point (TO) is performed about 1 minute after preparation. Furthermore, a “24 hours” and “3 days” time point at room temperature and 5° C. is performed.
Analytical methods: For each time-point tested, the degradation products of Tegaserod by HPLC are evaluated. Analytical methods are based on Test Methods described below.
Procedure for assay determination: For each time-point, one tablet is crushed according to the above procedure. The crushed tablet is transferred quantitatively into a 100 ml amber glass volumetric flask. 50 ml of the beverage is carefully added and the suspension is shaken vigorously by hand a few time and allowed to stand for the storage time tested. The suspension is re-homogenized, by shaking by hand. For extraction, the flask is filled to the mark with methanol (about 50 ml) then shaken for 30 minutes under magnetic stirring, sonicated for 10 minutes and shaken for 30 minutes under magnetic stirring. An aliquot of the methanol solution is centrifuged. The clear supernatant of the above solution is used as the test solution and is analyzed by HPLC (Isocratic HPLC on reversed phase RP-8 with UV detection). The same procedure is carried out once for each beverage but without tablet powder and the resulting chromatograms are compared for new appearance of any peak.
Procedure for determination of degradation products: In order to enable to reach a sufficiently low limit to quantify the degradation products, the number of tablets to be crushed is increased. For each time-point, 6 tablets for 2 mg dosage strength (or 5 tablets for 6 mg dosage strength) are crushed according to the above procedure. The crushed tablet is transferred quantitatively into a 20 ml for 2 mg dosage strength (or 50 ml amber glass volumetric flask for 6 mg dosage strength). 10 ml for 2 mg dosage strength (or 25 ml for 6 mg dosage strength) of the beverage are added carefully. The suspension is shaken vigorously by hand a few time and is allowed to stand for the storage time tested. The suspension is re-homogenized by shaking by hand. For extraction, the flask is filled to the mark with acetonitrile and is shaken for 30 minutes under magnetic stirring, sonicated for 10 minutes and shaken for 30 minutes under magnetic stirring. An aliquot of the homogenized solution is centrifuged.
The clear supernatant of the above solution is used as the test solution in order to quantify using a gradient HPLC on reversed phase RP-8 with UV detection. The same procedure is carried out once for each beverage but without crushed tablet and the resulting chromatograms are compared and analyzed according to the scheme below.
Acceptance criteria: Tegaserod is assumed stable in the tested media if the following acceptance criteria are met for the time-points studied.

With `CCCCCNC(=N)NN=Cc1c[nH]c2ccc(OC)cc12` [Tegaserod, 3-(5-methoxy-1H-indol-3-yl-methylene)-N-pentylcarbazimidamide] the time stable (crushed tablet in apple juice, fridge (5° C.), 2 mg dosage strength) was “at least 24 hours”, the time stable (crushed tablet in apple juice, fridge (5° C.), 6 mg dosage strength) was “up to 3 days” and the time stable (crushed tablet in apple juice, room temperature) was “at least 1 hour”. The time stable (crushed tablet in orange juice, fridge (5° C.), 2 mg dosage strength) was “at least 24 hours”, the time stable (crushed tablet in orange juice, fridge (5° C.), 6 mg dosage strength) was “up to 3 days” and the time stable (crushed tablet in orange juice, room temperature) was “at least 1 hour”. For the same compound, the time stable (crushed tablet in water, fridge (5° C.), 2 mg dosage strength) was “at least 24 hours”, the time stable (crushed tablet in water, fridge (5° C.), 6 mg dosage strength) was “up to 3 days” and the time stable (crushed tablet in water, room temperature) was “at least 1 hour”.
